Where “and” joins values, the source holds several entries; their conditions need not be identical. Identical values can stand only once. Inconclusive results and toxic doses are left out.

Experimental findings from PubChem BioAssay AID330 (DTP/NCI, 2004) are described below.

The assay has as its system P388 leukemia ip, CD2F1 mice, survival T/C. The assay is described as follows: NCI In Vivo Anticancer Drug Screen. Data for tumor model P388 Leukemia (intraperitoneal) in CD2F1 (CDF1) mice. The following applies: endpoint: median survival time, higher = longer survival. Summed up:
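Mice carrying the transplanted tumor received test compound or vehicle. Survival was recorded in each group, and the value is the treated-group measurement divided by that of the vehicle-treated control group.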

Setting [1] is: dose: 50.0 mg/kg/injection, schedule: Q01DX009 (ip), vehicle: Klucel (hydroxypropylcellulose) (HPC).
[2] abbreviates: dose: 100.0 mg/kg/injection, schedule: Q01DX009 (ip), vehicle: Klucel (hydroxypropylcellulose) (HPC).
Where [3] appears, read: dose: 200.0 mg/kg/injection, schedule: Q01DX009 (ip), vehicle: Klucel (hydroxypropylcellulose) (HPC).
Where [4] appears, read: dose: 50.0 mg/kg/injection, schedule: Q01DX005 (ip), vehicle: Klucel (hydroxypropylcellulose) (HPC).
[5] abbreviates: dose: 100.0 mg/kg/injection, schedule: Q01DX005 (ip), vehicle: Klucel (hydroxypropylcellulose) (HPC).
Setting [6] is: dose: 100.0 mg/kg/injection, schedule: Q01DX001 (ip), vehicle: saline with Tween-80.
Setting [7] is: dose: 200.0 mg/kg/injection, schedule: Q01DX001 (ip), vehicle: saline with Tween-80.
Where [8] appears, read: dose: 400.0 mg/kg/injection, schedule: Q01DX001 (ip), vehicle: saline with Tween-80.
Where [9] appears, read: dose: 60.0 mg/kg/injection, schedule: Q01DX005 (ip), vehicle: saline with Tween-80.
The mark [10] stands for this setting: dose: 120.0 mg/kg/injection, schedule: Q01DX005 (ip), vehicle: saline with Tween-80.
Setting [11] is: dose: 240.0 mg/kg/injection, schedule: Q01DX005 (ip), vehicle: saline with Tween-80.

Take `Cc1ccc(S(=O)(=O)OCC(C)(C)C)cc1`: the T/C is 100 % of control (dose: 50.0 mg/kg/injection, schedule: Q04DX003 (ip), vehicle: Klucel (hydroxypropylcellulose) (HPC)); 100 % of control (dose: 100.0 mg/kg/injection, schedule: Q04DX003 (ip), vehicle: Klucel (hydroxypropylcellulose) (HPC)); 100 % of control (dose: 200.0 mg/kg/injection, schedule: Q04DX003 (ip), vehicle: Klucel (hydroxypropylcellulose) (HPC)); 96 % of control (dose: 400.0 mg/kg/injection, schedule: Q04DX003 (ip), vehicle: Klucel (hydroxypropylcellulose) (HPC)).

As for `COc1cc2c(c(OC(C)=O)c1OC(C)=O)-c1ccc(SC)c(=O)cc1C(NC(C)=O)CC2` (stereo not drawn), the T/C was 110 % of control (dose: 1.25 mg/kg/injection, schedule: Q01DX009 (ip), vehicle: Klucel (hydroxypropylcellulose) (HPC)); 105 % of control (dose: 2.5 mg/kg/injection, schedule: Q01DX009 (ip), vehicle: Klucel (hydroxypropylcellulose) (HPC)); 93 % of control (dose: 5.0 mg/kg/injection, schedule: Q01DX009 (ip), vehicle: Klucel (hydroxypropylcellulose) (HPC)); 100 % of control (dose: 9.0 mg/kg/injection, schedule: Q01DX009 (ip), vehicle: Klucel (hydroxypropylcellulose) (HPC)); 105 % of control (dose: 10.0 mg/kg/injection, schedule: Q01DX009 (ip), vehicle: Klucel (hydroxypropylcellulose) (HPC)); 89 % of control (dose: 18.0 mg/kg/injection, schedule: Q01DX009 (ip), vehicle: Klucel (hydroxypropylcellulose) (HPC)). The T/C (dose: 36.0 mg/kg/injection, schedule: Q01DX009 (ip), vehicle: Klucel (hydroxypropylcellulose) (HPC)) was 100 % of control.

Take `COc1cccc(OC)c1OCCN1C(=O)c2ccccc2C1=O`: the T/C is, setting by setting: under setting [1], 100 % of control; under setting [2], 100 % of control; under setting [3], 105 % of control.

On to `C=CCN=C(NC(C)(C)C)c1ccccc1`, for which the T/C under setting [4] is 107 % of control and the T/C under setting [5] is 96 % of control.

With `CN(C)CCN(C)CCc1ccccn1`, the T/C by setting is: (dose: 100.0 mg/kg/injection, schedule: Q01DX001 (ip), vehicle: saline) 109 % of control; (dose: 200.0 mg/kg/injection, schedule: Q01DX001 (ip), vehicle: saline) 102 % of control; (dose: 400.0 mg/kg/injection, schedule: Q01DX001 (ip), vehicle: saline) 105 % of control.

Consider `COc1ccc(C(CC(=O)O)CC(=O)N(CCCl)CCCl)cc1C` (stereo not drawn), for which the T/C (dose: 100.0 mg/kg/injection, schedule: Q04DX003 (ip), vehicle: saline) was 102 % of control; the T/C (dose: 200.0 mg/kg/injection, schedule: Q04DX003 (ip), vehicle: saline) was 100 % of control; the T/C (dose: 400.0 mg/kg/injection, schedule: Q04DX003 (ip), vehicle: saline) was 100 % of control.

For the compound `CCO/C=C1\CC(=O)N(c2ccc(F)c(Cl)c2)C1=O`, the T/C (dose: 25.0 mg/kg/injection, schedule: Q01DX001 (ip), vehicle: saline with Tween-80) was 100 % of control; the T/C (dose: 50.0 mg/kg/injection, schedule: Q01DX001 (ip), vehicle: saline with Tween-80) was 100 % of control; the T/C under setting [6] is 98 % of control and 100 % of control; the T/C under setting [7] was 109 % of control; the T/C under setting [8] is 100 % of control.

On to `CC(=O)OC1OC(=O)C(C)(C(C)=O)C1C` (stereo not drawn), for which the T/C was 100 % of control (dose: 12.5 mg/kg/injection, schedule: Q01DX005 (ip), vehicle: distilled water + alcohol) and 100 % of control (dose: 25.0 mg/kg/injection, schedule: Q01DX005 (ip), vehicle: distilled water + alcohol).

Regarding `Nc1nncs1`, the T/C runs as follows: (dose: 6.25 mg/kg/injection, schedule: Q01DX009 (ip), vehicle: water) 107 % of control and 108 % of control and 94 % of control; (dose: 7.5 mg/kg/injection, schedule: Q01DX009 (ip), vehicle: water) 112 % of control; (dose: 15.0 mg/kg/injection, schedule: Q01DX009 (ip), vehicle: water) 101 % of control; (dose: 20.0 mg/kg/injection, schedule: Q01DX005 (ip), vehicle: saline) 103 % of control and 109 % of control; (dose: 30.0 mg/kg/injection, schedule: Q01DX009 (ip), vehicle: water) 117 % of control; (dose: 40.0 mg/kg/injection, schedule: Q01DX005 (ip), vehicle: saline) 122 % of control. The T/C reads like this: (dose: 80.0 mg/kg/injection, schedule: Q01DX005 (ip), vehicle: saline) 172 % of control and 188 % of control; (dose: 120.0 mg/kg/injection, schedule: Q01DX009 (ip), vehicle: water) 104 % of control; (dose: 160.0 mg/kg/injection, schedule: Q01DX005 (ip), vehicle: saline) 69 % of control.

For the compound `NC1=NC(c2ccccc2Cl)CC(c2cc3ccccc3o2)=N1` (stereo not drawn), the T/C is, setting by setting: under setting [6], 92 % of control; under setting [7], 89 % of control; under setting [8], 100 % of control.

With `CC1(C)OC2(C)CCC1C1C2N1C(=O)Nc1ccccc1` (stereo not drawn), the T/C by setting is: (dose: 50.0 mg/kg/injection, schedule: Q01DX005 (ip), vehicle: saline with Tween-80) 101 % of control; (dose: 100.0 mg/kg/injection, schedule: Q01DX005 (ip), vehicle: saline with Tween-80) 106 % of control; (dose: 200.0 mg/kg/injection, schedule: Q01DX005 (ip), vehicle: saline with Tween-80) 101 % of control.

`CC1(C)N=NC2(Br)C3CCC(C3)C12` (stereo not drawn): the T/C runs as follows: (dose: 100.0 mg/kg/injection, schedule: Q04DX002 (ip), vehicle: Klucel (hydroxypropylcellulose) (HPC)) 102 % of control; (dose: 200.0 mg/kg/injection, schedule: Q04DX002 (ip), vehicle: Klucel (hydroxypropylcellulose) (HPC)) 97 % of control; (dose: 400.0 mg/kg/injection, schedule: Q04DX002 (ip), vehicle: Klucel (hydroxypropylcellulose) (HPC)) 100 % of control.

Turning to `C=CC(O)CN1CC1` (stereo not drawn), the T/C (dose: 0.75 mg/kg/injection, schedule: Q04DX003 (ip), vehicle: saline) is 122 % of control; the T/C (dose: 1.25 mg/kg/injection, schedule: Q01DX009 (ip), vehicle: saline) is 158 % of control; the T/C (dose: 2.5 mg/kg/injection, schedule: Q01DX009 (ip), vehicle: saline) was 113 % of control and 212 % of control; the T/C (dose: 3.0 mg/kg/injection, schedule: Q04DX003 (ip), vehicle: saline) was 181 % of control; the T/C (dose: 6.0 mg/kg/injection, schedule: Q04DX003 (ip), vehicle: saline) is 154 % of control; the T/C (dose: 10.0 mg/kg/injection, schedule: Q04DX003 (ip), vehicle: saline) was 154 % of control.

Consider `CC(C)(C)C1CN2CCO[Si](CC[Si](C)(C)C)(OCC2)O1` (stereo not drawn), for which the T/C under setting [4] is 98 % of control; the T/C under setting [5] was 97 % of control; the T/C (dose: 200.0 mg/kg/injection, schedule: Q01DX005 (ip), vehicle: Klucel (hydroxypropylcellulose) (HPC)) was 88 % of control.

For `CCCCC1(C)OC(C)CC(C)O1` (stereo not drawn), the T/C reads like this: (dose: 60.0 mg/kg/injection, schedule: Q01DX005 (ip), vehicle: saline) 97 % of control; (dose: 120.0 mg/kg/injection, schedule: Q01DX005 (ip), vehicle: saline) 99 % of control; (dose: 240.0 mg/kg/injection, schedule: Q01DX005 (ip), vehicle: saline) 108 % of control.

On to `COC(=O)C(N)C(C)O` (stereo not drawn), for which the T/C is, setting by setting: (dose: 12.5 mg/kg/injection, schedule: Q01DX009 (ip), vehicle: water) 97 % of control; (dose: 25.0 mg/kg/injection, schedule: Q01DX009 (ip), vehicle: water) 101 % of control; (dose: 50.0 mg/kg/injection, schedule: Q01DX009 (ip), vehicle: water) 89 % of control; (dose: 100.0 mg/kg/injection, schedule: Q01DX009 (ip), vehicle: water) 102 % of control; (dose: 200.0 mg/kg/injection, schedule: Q01DX009 (ip), vehicle: water) 102 % of control.

As to `Nc1ncnc2c1c(-c1ccccc1)cn2-c1ccccc1`, the T/C under setting [9] is 103 % of control, the T/C under setting [10] was 104 % of control and the T/C under setting [11] is 98 % of control.

With `Nc1nc(N)c2[nH]c(CNc3ccc(C(=O)O)cc3)nc2n1`, the T/C was 89 % of control under setting [9], 89 % of control under setting [10] and 86 % of control under setting [11].

`Oc1ccccc1C=Nc1ccc2nc(SCc3ccccc3)sc2c1`: the T/C reads like this: under setting [1], 109 % of control; under setting [2], 100 % of control; under setting [3], 89 % of control.
